Experimental data taken from patent US4528287A, “6-Fluoro-1, 4-dihydro-4-oxo-7-substituted piperazinylquinoline-3-carboxylic acids and the method for preparing the same” (priority 1983, dated 1985).
In brackets after ≈: the same amount, converted by molar mass. Read-outs that look alike come from different tables or passages of the source.

Experiments:
in vivo = settings: mouse, male ddY mice, 10 days
Method: Male mice of ddY strain, 4 weeks old, were used with 10 animals at a group. Test compounds suspended in 0.5% carboxymethyl cellulose were administered per os (p.o.) in mice. In the case of intraveneous (i.v.) administration, test compounds were solved in 0.1N-HCl solution and neutralized with 0.1N-NaOH solution.

[1] = tested on: Pseudomonas aeruginosa NCTC10490; experiment: MIC, twofold agar dilution; type: cell-based; settings: Gram -, 10^6 cells/ml, 18 hrs, 37° C., read-out: Minimum inhibitory concentration (MIC)
Method: (§1) Minimum inhibitory concentrations (MIC) were determined by the twofold agar dilution method (Chemotherapy, 29(1), 76(1981)). Overnight cultures in Mueller-Hinton broth were suspended by buffered saline gelatine. One loopful of the bacterial suspension (10^6 or 10^8 colony-forming units/ml) was incubated onto the test compound-containing plates. The plates were incubated for 18 hrs. at 37° C. The MIC was the lowest concentration of the drug that inhibited visible growth.

Proteus vulgalis OX-19 = experiment: MIC, twofold agar dilution; type: cell-based; settings: Gram -; 10^6 cells/ml; 18 hrs, 37° C.; read-out: Minimum inhibitory concentration (MIC)
Method: as §1

[2] = tested on: Pseudomonas aeruginosa IFO3445; experiment: MIC, twofold agar dilution; type: cell-based; settings: Gram -, 10^6 cells/ml, 18 hrs, 37° C., read-out: Minimum inhibitory concentration (MIC)
Method: as §1

[3] = tested on: Bacillus subtilis ATCC6633; experiment: MIC, twofold agar dilution; type: cell-based; settings: Gram +, 10^6 cells/ml, 18 hrs, 37° C., read-out: Minimum inhibitory concentration (MIC)
Method: as §1

[4] = tested on: Staphylococcus aureus FAD208PJC-1; experiment: MIC, twofold agar dilution; type: cell-based; settings: FAD208PJC1, Gram +, 10^6 cells/ml, 18 hrs, 37° C., read-out: Minimum inhibitory concentration (MIC)
Method: as §1

[5] = tested on: Klebsiella pneumoniae PCI-602; experiment: MIC, twofold agar dilution; type: cell-based; settings: PCI602, 18 h, read-out: Minimum inhibitory concentration (MIC)
Method: as §1

[6] = tested on: Salmonella paratyphi 1015; experiment: MIC, twofold agar dilution; type: cell-based; settings: Salmonella enterica, 18 h, read-out: Minimum inhibitory concentration (MIC)
Method: as §1

[7] = tested on: Pseudomonas aeruginosa ATCC9027; experiment: MIC, twofold agar dilution; type: cell-based; settings: Gram -, 10^6 cells/ml, 18 hrs, 37° C., read-out: Minimum inhibitory concentration (MIC)
Method: as §1

[8] = tested on: Pseudomonas aeruginosa PAO7; experiment: MIC, twofold agar dilution; type: cell-based; settings: Gram -, 10^6 cells/ml, 18 hrs, 37° C., read-out: Minimum inhibitory concentration (MIC)
Method: as §1

[9] = tested on: Staphylococcus aureus Terajima; experiment: MIC, twofold agar dilution; type: cell-based; settings: Gram +, 10^6 cells/ml, 18 hrs, 37° C., read-out: Minimum inhibitory concentration (MIC)
Method: as §1

[10] = tested on: Enterobacter aerogenes ATCC13048; experiment: MIC, twofold agar dilution; type: cell-based; settings: Klebsiella aerogenes, Gram -, 10^6 cells/ml, 18 hrs, 37° C., read-out: Minimum inhibitory concentration (MIC)
Method: as §1

Proteus rettgeri IFO3850 = experiment: MIC, twofold agar dilution; type: cell-based; settings: Providencia rettgeri, Gram -, 10^6 cells/ml, 18 hrs, 37° C., read-out: Minimum inhibitory concentration (MIC)
Method: as §1

[11] = tested on: Micrococcus luteus ATCC9341; experiment: MIC, twofold agar dilution; type: cell-based; settings: Gram +, 10^6 cells/ml, 18 hrs, 37° C., read-out: Minimum inhibitory concentration (MIC)
Method: as §1

[12] = tested on: Salmonella typhimurium IID 971; experiment: MIC, twofold agar dilution; type: cell-based; settings: Salmonella enterica; Gram -; 10^6 cells/ml; 18 hrs, 37° C.; read-out: Minimum inhibitory concentration (MIC)
Method: as §1

Proteus vulgalis HX-19 = experiment: MIC, twofold agar dilution; type: cell-based; settings: Gram -; 10^6 cells/ml; 18 hrs, 37° C.; read-out: Minimum inhibitory concentration (MIC)
Method: as §1

[13] = tested on: Escherichia coli K-12 C600; experiment: MIC, twofold agar dilution; type: cell-based; settings: K12C600, Gram -, 10^6 cells/ml, 18 hrs, 37° C., read-out: Minimum inhibitory concentration (MIC)
Method: as §1

[14] = tested on: Streptococcus pyogenes Cook; experiment: MIC, twofold agar dilution; type: cell-based; settings: Gram +, 10^6 cells/ml, 18 hrs, 37° C., read-out: Minimum inhibitory concentration (MIC)
Method: as §1

Proteus morganii IFO3848 = experiment: MIC, twofold agar dilution; type: cell-based; settings: Morganella morganii, Gram -, 10^6 cells/ml, 18 hrs, 37° C., read-out: Minimum inhibitory concentration (MIC)
Method: as §1

[15] = tested on: Serratia marcescens IAM1184; experiment: MIC, twofold agar dilution; type: cell-based; settings: Gram -, 10^6 cells/ml, 18 hrs, 37° C., read-out: Minimum inhibitory concentration (MIC)
Method: as §1

[16] = tested on: Salmonella schottmulleri 0006; experiment: MIC, twofold agar dilution; type: cell-based; settings: Gram -, 10^6 cells/ml, 18 hrs, 37° C., read-out: Minimum inhibitory concentration (MIC)
Method: as §1

[17] = tested on: Enterobacter cloaceas 963; experiment: MIC, twofold agar dilution; type: cell-based; settings: Gram -, 10^6 cells/ml, 18 hrs, 37° C., read-out: Minimum inhibitory concentration (MIC)
Method: as §1

[18] = tested on: Escherichia coli NIHJ-JC-2; experiment: MIC, twofold agar dilution; type: cell-based; settings: NIHJJC2, Gram -, 10^6 cells/ml, 18 hrs, 37° C., read-out: Minimum inhibitory concentration (MIC)
Method: as §1

[19] = tested on: Proteus mirabilis IFO3849; experiment: MIC, twofold agar dilution; type: cell-based; settings: Gram -, 10^6 cells/ml, 18 hrs, 37° C., read-out: Minimum inhibitory concentration (MIC)
Method: as §1

Salmonella typhi 901 = experiment: MIC, twofold agar dilution; type: cell-based; settings: Salmonella enterica, 18 h, read-out: Minimum inhibitory concentration (MIC)
Method: as §1

[20] = tested on: Staphylococcus aureus MS-353; experiment: MIC, twofold agar dilution; type: cell-based; settings: MS353, Gram +, 10^6 cells/ml, 18 hrs, 37° C., read-out: Minimum inhibitory concentration (MIC)
Method: as §1

[21] = tested on: Salmonella enteritidis G14; experiment: MIC, twofold agar dilution; type: cell-based; settings: Salmonella enterica, Gram -, 10^6 cells/ml, 18 hrs, 37° C., read-out: Minimum inhibitory concentration (MIC)
Method: as §1

[22] = Urinary excretion in rats after oral dosing (bioassay with Escherichia coli NIHJ-JC-2); type: in vivo, SD strain); settings: rat, male SD rats, 20 mg/Kg per os, fasted 24 hr
Method: Male rats of SD strain, weighing 180-210 g, were used 8 animals at a group. Test compounds suspended in 0.5% carboxymethyl cellulose were administered per os to 24 hr-fasted rats at dose of 20 mg/Kg. Urine was pooled from 0 to 6 hrs. and 6 to 24 hrs, and urinary excretion was measured by bioassay using Escherichia coli NIHJ-JC-2.
The assay method employed was the cup-plate method using
Escherichia coli NIHJ-JC-2. Urine was appropriately diluted with 1/15M phosphate buffer pH7.0, before assay if necessary. Standard calibration lines were made in 1/15M phosphate buffer pH7.0.

## CCn1cc(C(=O)O)c(=O)c2cc(F)c(N3CCNC(C)C3)c(F)c21 (stereo not shown) [Example 4, 1-Ethyl-6,8-difluoro-1,4-dihydro-7-(3-methyl-1-piperazinyl)-4-oxoquinoline-3-carboxylic acid]
In vivo; iv, i.v., read-out: LD50 i.v. (95% Confidence Limit)
  LD50 at 240 h: 246 mg/kg
In vivo; po, p.o., read-out: LD50 p.o.
  LD50 at 240 h: > 4000 mg/kg
[1]
  MIC: 0.78 µg/mL (≈ 2.22 µM)
Proteus vulgalis OX-19
  MIC: 0.05 µg/mL (≈ 0.142 µM)
[2]
  MIC: 0.78 µg/mL (≈ 2.22 µM)
[3]
  MIC: 0.1 µg/mL (≈ 0.285 µM)
[4]
  MIC: 0.38 µg/mL (≈ 1.08 µM)
[5]
  MIC: 0.0125 µg/mL (≈ 0.0356 µM)
[6]
  MIC: 0.025 µg/mL (≈ 0.0712 µM)
[7]
  MIC: 0.05 µg/mL (≈ 0.142 µM)
[8]
  MIC: 1.56 µg/mL (≈ 4.44 µM)
[9]
  MIC: 0.78 µg/mL (≈ 2.22 µM)
[10]
  MIC: 0.1 µg/mL (≈ 0.285 µM)
Proteus rettgeri IFO3850
  MIC: 0.05 µg/mL (≈ 0.142 µM)
[11]
  MIC: 6.25 µg/mL (≈ 17.8 µM)
[12]
  MIC: 0.05 µg/mL (≈ 0.142 µM)
Proteus vulgalis HX-19
  MIC: 0.025 µg/mL (≈ 0.0712 µM)
[13]
  MIC: 0.05 µg/mL (≈ 0.142 µM)
[14]
  MIC: 3.13 µg/mL (≈ 8.91 µM)
Proteus morganii IFO3848
  MIC: 0.025 µg/mL (≈ 0.0712 µM)
[15]
  MIC: 0.1 µg/mL (≈ 0.285 µM)
[16]
  MIC: 0.025 µg/mL (≈ 0.0712 µM)
[17]
  MIC: 0.1 µg/mL (≈ 0.285 µM)
[18]
  MIC: 0.05 µg/mL (≈ 0.142 µM)
[19]
  MIC: 0.2 µg/mL (≈ 0.569 µM)
Salmonella typhi 901
  MIC: 0.0125 µg/mL (≈ 0.0356 µM)
[20]
  MIC: 0.78 µg/mL (≈ 2.22 µM)
[21]
  MIC: 0.05 µg/mL (≈ 0.142 µM)
[22]; urine 0-6 hr, read-out: Drug Concentration in Urine 0-6 (hr)
  concentration at 6 h: 659 µg/mL
[22]; urine 0-24 hr, read-out: Rate of Urinary Excretion 0-24 (hr)
  dose excreted at 24 h: 75%
[22]; urine 6-24 hr, read-out: Drug Concentration in Urine 6-24 (hr)
  concentration at 24 h: 87 µg/mL
